Assays:
[1] = Acute toxicity experiments; type: in vivo; conditions: i.p.
wild-type mice = test: Contextual fear conditioning; type: in vivo; conditions: for freezing 24 h after training: vs WT vehicle mice, single tone pairing with 0.35 mA foot shock
Procedure: Contextual fear conditioning was performed to assess whether compound 1 is capable of enhancing memory. This type of cognitive test is much faster than other behavioral tasks that require multiple days of training and testing (J Clin Invest, 2004. 114(11): 1624-34; herein incorporated by reference in its entirety). The conditioning chamber was in a sound-attenuating box. A clear Plexiglas window allowed the experimenter to film the mouse performance with a camera placed on a tripod and connected to the Freezeframe software (MED Ass. Inc.). To provide background white noise (72 dB), a single computer fan was installed in one of the sides of the sound-attenuating chamber. […] The floor was removable, and after each experimental subject, it was cleaned with 75% ethanol and then with water. Only one animal at a time was present in the experimentation […].
[…] The mice remained in the chamber for an additional 30 sec after the end of the last pairing, after which they were returned to their home cages. Contextual fear conditioning was assayed 24 hr after training by replacing the animals in the conditioning context for a 5 min period, during which the incidence of freezing (immobile except for respiration) was recorded. […]
Freezing behavior, defined as the absence of all movement except for that necessitated by breathing, was scored using the Freezeview software.
To evaluate contextual fear learning, freezing was measured for 5 min (consecutively) in the chamber in which the mice was trained 24 hr after training. To evaluate cued fear learning, following contextual testing, the mice were placed in a novel context (triangular cage with smooth flat floor) for 2 min (pre-CS test), after which they were exposed to the CS for 3 min (CS test), and freezing was measured. Sensory perception of the shock was determined through threshold assessment. […] Initially, a […] shock was delivered for 1 sec, and the animal behavior was evaluated for flinching, jumping, and vocalization. […]

HDAC10 = molecular target: T1, HDAC10 (Homo sapiens, UniProt Q969S8); test: HDAC10 activity assay (fluorescence); conditions: Compound 1 Log [nM] 4.5; Repeat1/Repeat2
T1 sequence (Q969S8 1-669): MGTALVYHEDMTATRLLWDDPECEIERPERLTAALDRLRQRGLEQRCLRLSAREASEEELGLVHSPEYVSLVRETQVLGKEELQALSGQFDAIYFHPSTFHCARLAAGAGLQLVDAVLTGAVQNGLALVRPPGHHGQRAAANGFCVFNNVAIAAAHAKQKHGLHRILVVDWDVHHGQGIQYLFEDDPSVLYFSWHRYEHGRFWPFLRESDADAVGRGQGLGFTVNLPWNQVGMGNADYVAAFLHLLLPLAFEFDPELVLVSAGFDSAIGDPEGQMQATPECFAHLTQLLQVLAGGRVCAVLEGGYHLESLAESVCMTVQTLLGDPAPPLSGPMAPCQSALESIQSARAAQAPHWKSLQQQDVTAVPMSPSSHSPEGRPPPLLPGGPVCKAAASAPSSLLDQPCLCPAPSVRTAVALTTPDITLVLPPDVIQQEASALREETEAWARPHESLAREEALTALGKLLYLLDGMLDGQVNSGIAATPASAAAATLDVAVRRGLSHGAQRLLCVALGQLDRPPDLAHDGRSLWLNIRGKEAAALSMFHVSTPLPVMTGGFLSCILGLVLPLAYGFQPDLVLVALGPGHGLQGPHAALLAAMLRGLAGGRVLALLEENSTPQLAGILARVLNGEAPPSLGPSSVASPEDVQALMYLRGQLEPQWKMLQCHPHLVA

[2] = test system: histone lysines H3K4, H3K9, H3K14, H4K5, H4K8, H4K12, H4K16, and H2B; test: Histone acetylation in mouse hippocampus (WB analysis); type: in vivo; conditions: for acetylation of histone lysines (H3, H4, H2B) in hippocampus: 20 mg/Kg i.p., 30 min, FIG. 22
Procedure: The compound was i.p. administered at 20 mg/Kg, mice were sacrificed 30 min later, and hippocampi were removed and quickly frozen for WB analysis.

mice = test: Sensory threshold assessment; type: in vivo; conditions: vs vehicle, 5 mg/kg (FIG. 19)
Procedure: To evaluate contextual fear learning, freezing was measured for 5 min (consecutively) in the chamber in which the mice was trained 24 hr after training. To evaluate cued fear learning, following contextual testing, the mice were placed in a novel context (triangular cage with smooth flat floor) for 2 min (pre-CS test), after which they were exposed to the CS for 3 min (CS test), and freezing was measured. Sensory perception of the shock was determined through threshold assessment. A sequence of single foot shocks was delivered to animals placed on the same electrified grid used for fear conditioning. Initially, a […] shock was delivered for 1 sec, and the animal behavior was evaluated for flinching, jumping, and vocalization. At 30 sec intervals the shock intensity was increased by […] and then returned to 0 mV in […] increments at 30 sec intervals. Threshold to vocalization, flinching, and then jumping was quantified for each animal by averaging the shock intensity at which each animal manifests a behavioral response to the foot shock.

[3] = test system: HDAC 1, 3, 5, 6, 7, 8, 10, 11, and sirt1-2; test: HDAC activity assays, summary over the panel; type: biochemical; conditions: HDAC 1, 3, 5, 6, 7, 8, 10, 11, sirt1-2
Procedure: Assay Conditions. A series of dilution of the test compounds were prepared with 10% DMSO in assay buffer and 5 μl of the dilution was added to a 50 μl reaction so that the final concentration of DMSO is 1% in all of reactions. All of the enzymatic reactions were conducted in duplicate at 37° C. for 30 minutes except of HDAC11 at room temperature for 3 hours. The 50 μl reaction mixture contains HDAC assay buffer, 5 μg BSA, an HDAC substrate, an HDAC enzyme and a test compound. After enzymatic reactions, 50 μl of HDAC Developer was added to each well and the plate was incubated at room temperature for an additional 20 minutes. Fluorescence intensity was measured at an excitation of 360 nm and an emission of 460 nm using a Tecan Infinite M1000 microplate reader.
Data Analysis. HDAC activity assays were performed in duplicates at each concentration. The fluorescent intensity data were analyzed using the computer software, Graphpad Prism. In the absence of the compound, the fluorescent intensity (Ft) in each data set was defined as 100% activity. In the absence of HDAC, the fluorescent intensity (Fb) in each data set was defined as 0% activity. […] The percent activity in the presence of each compound was calculated according to the following equation: % activity=(F−Fb)/(Ft−Fb), where F=the fluorescent intensity in the presence of the compound. […]

[4] = Kinetics in blood sampled from tails; type: in vivo, mice; conditions: 20 mg/kg i.p.

Question: For `CCOc1cccc(OCCN(C)C)c1C(=O)Nc1ccc(Cl)c(C(F)(F)F)c1` [Compound 1], which “dose without any adverse effects, acute toxicity” value [1] is on record?
Answer: The value was “up to 300 mg/kg”.

Question: And the “freezing 24 h after training” value (wild-type mice; 5 mg/kg)?
Answer: The value was “froze nearly twice as often”.

Question: What about the “freezing 24 h after training” value (wild-type mice; 20 mg/kg) of the same compound?
Answer: Its value is “froze nearly twice as often”.

Question: And the memory effect (wild-type mice; weaker training protocol)?
Answer: The memory effect was “worked as a memory enhancer”.

Question: And the “% Activity (HDAC10)” value (HDAC10)?
Answer: Its value is 102.89%.

Question: What about the “acetylation of histone lysines (H3, H4, H2B) in hippocampus” value [2] of the same compound?
Answer: The value was “increased acetylation of histone lysines”.

Question: And the “acetylation of histone lysines (H3, H4, H2B) in hippocampus” value ([2]; listed as YF2)?
Answer: The value was “increased specific acetylation of H3, H4, and H2B”.

Question: What about the “crossing of the BBB” value ([2]; i.p., western blot, FIG. 21) of the same compound?
Answer: Its value is “crosses the BBB”.

Question: What about the “histone 3 acetylation levels of the hippocampus” value ([2]; i.p., western blot, FIG. 21) of the same compound?
Answer: Its value is “increases histone 3 acetylation levels”.

Question: What about the sensory threshold (mice) of the same compound?
Answer: Its sensory threshold is “no difference was observed”.

Question: And the “HDAC inhibition (in words)” value [3]?
Answer: Its value is “does not inhibit HDACs”.

Question: What about the “HDAC inhibition (in words)” value ([3]; listed as compound 1) of the same compound?
Answer: Its value is “did not interfere with p300 and HDAC activity”.

Question: What about the “time of peak in blood post-injection” value [4] of the same compound?
Answer: The value was “around 30 minutes”.
